Laboratory results as given in US20110144175A1, “METHOD FOR CONTROLLING DEGRADATION OF AGRICULTURAL CHEMICAL ACTIVE INGREDIENT” (priority 2008, published 2011).

Assay: Accelerated preservation test of dustable powder (Cyazofamid content by HPLC)
Type: physicochemical
Method: The dustable powder obtained by Example 1 or Comparative Example was subjected to an accelerated preservation at 54° C. for 14 days, and then the Cyazofamid content in the dustable powder was measured by an HPLC (high performance liquid chromatography) and degradation ratio (%) of Cyazofamid was calculated by the following formula. In this connection, the Cyazofamid content in the dustable powder preserved at 4° C. was measured at the time of measuring the Cyazofamid content in the dustable powder after accelerated preservation, and the value was used as the initial stage content. Degradation ratio (%)=(initial stage content−content after accelerated preservation)/initial stage content×100

Substance	Degradation Ratio (%) of Cyazofamid [%]
Epoxidized Soybean Oil	5
Polyoxyethylene Castor Oil	7
